Source: US7803810B2, “Inhibitors” (Probiodrug AG, priority 2007, dated 2010)

Molecular target: glutaminyl cyclase (QC) (Homo sapiens, UniProt Q16769)
Assay: QC inhibitor assay (fluorometric / spectrophotometric QC activity assays with inhibitor added)
Format: biochemical
Conditions: QC inhibition, 30° C.; for Ki: fit to competitive inhibition
Experimental: All measurements were performed with a BioAssay Reader HTS-7000Plus for microplates (Perkin Elmer) at 30° C. QC activity was evaluated fluorometrically using […]. The samples consisted of 0.2 mM fluorogenic substrate, 0.25 U pyroglutamyl aminopeptidase (Unizyme, Horsholm, Denmark) in 0.2 M Tris/HCl, pH 8.0 containing 20 mM EDTA and an appropriately diluted aliquot of QC in a final volume of 250 μl. Excitation/emission wavelengths were 320/410 nm. The assay reactions were initiated by addition of glutaminyl cyclase. QC activity was determined from a standard curve of β-naphthylamine under assay conditions. One unit is defined as the amount of QC catalyzing the formation of 1 μmol pGlu-βNA from H-Gln-βNA per minute under the described conditions.
In a second fluorometric assay, QC was activity determined using H-Gln-AMC as substrate. Reactions were carried out at 30° C. utilizing the NOVOStar reader for microplates (BMG labtechnologies). The samples consisted of varying concentrations of the fluorogenic substrate, 0.1 U pyroglutamyl aminopeptidase (Qiagen) in 0.05 M Tris/HCl, pH 8.0 containing 5 mM EDTA and an appropriately diluted aliquot of QC in a final volume of 250 μl. Excitation/emission wavelengths were 380/460 nm. The assay reactions were initiated by addition of glutaminyl cyclase. QC activity was determined from a standard curve of 7-amino-4-methylcoumarin under assay conditions. The kinetic data were evaluated using GraFit software.
This novel assay was used to determine the kinetic parameters for most of the QC substrates. […] Samples consisted of the respective QC substrate, 0.3 mM NADH, 14 mM α-Ketoglutaric acid and 30 U/ml glutamate dehydrogenase in a final volume of 250 μl. Reactions were started by addition of QC and persued by monitoring of the decrease in absorbance at 340 nm for 8-15 min.
The initial velocities were evaluated and the enzymatic activity was determined from a standard curve of ammonia under assay conditions. All samples were measured at 30° C., using either the […]luor Plus or the Sunrise (both from TECAN) reader for microplates. Kinetic data was evaluated using GraFit software.
For inhibitor testing, the sample composition was the same as described above, except of the putative inhibitory compound added. For a rapid test of QC-inhibition, samples contained 4 mM of the respective inhibitor and a substrate concentration at 1 KM. For detailed investigations of the inhibition and determination of Ki-values, influence of the inhibitor on the auxiliary enzymes was investigated first. […] The inhibitory constant was evaluated by fitting the set of progress curves to the general equation for competitive inhibition using GraFit software.

Chain of glutaminyl cyclase (QC) (Q16769 29-361): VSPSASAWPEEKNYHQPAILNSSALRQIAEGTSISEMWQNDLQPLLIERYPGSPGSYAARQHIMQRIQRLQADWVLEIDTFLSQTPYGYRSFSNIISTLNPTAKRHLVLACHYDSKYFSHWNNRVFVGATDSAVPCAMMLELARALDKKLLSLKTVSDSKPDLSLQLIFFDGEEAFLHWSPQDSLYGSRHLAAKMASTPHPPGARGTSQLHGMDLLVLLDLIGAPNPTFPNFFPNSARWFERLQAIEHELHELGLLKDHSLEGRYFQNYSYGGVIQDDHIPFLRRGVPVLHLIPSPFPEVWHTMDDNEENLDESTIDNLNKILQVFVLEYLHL

| SMILES | IC50 [µM] | Ki [µM] |
| --- | --- | --- |
| c1ccc(Cc2cccn3cncc23)cc1 [Example 2, 8-benzylH-imidazo[1,5-a]pyridine] | 18.9 | 5.5 |
| CC(C)Cc1cccn2cncc12 [Example 3, 8-isobutylH-imidazo[1,5-a]pyridine] | 20 | 3.7 |
| Fc1ccccc1-c1cccn2cncc12 [Example 5, 8-(2-fluorophenyl)H-imidazo[1,5-a]pyridine] | 20.6 | 3.14 |
| Clc1ccccc1-c1cccn2cncc12 [Example 8, 8-(2-chlorophenyl)H-imidazo[1,5-a]pyridine] | 47.7 | 15.2 |
| Clc1cccc(-c2cccn3cncc23)c1 [Example 9, 8-(3-chlorophenyl)H-imidazo[1,5-a]pyridine] | 17.2 | 2.25 |
| COc1ccccc1-c1cccn2cncc12 [Example 12, 8-(2-methoxyphenyl)H-imidazo[1,5-a]pyridine] | 13.6 | 3.98 |
| c1ccc(COc2ccccc2-c2cccn3cncc23)cc1 [Example 15, 8-(2-(benzyloxy)phenyl)H-imidazo[1,5-a]pyridine] | 23.6 | 5.38 |
| c1ccc(-c2ccccc2-c2cccn3cncc23)cc1 [Example 18, 8-(biphen-2-yl)H-imidazo[1,5-a]pyridine] | 36.5 | 11 |
| c1ccc(-c2ccc(-c3cccn4cncc34)cc2)cc1 [Example 20, 8-(biphen-4-yl)H-imidazo[1,5-a]pyridine] | 20.6 | 2.13 |
| FC(F)(F)Oc1ccccc1-c1cccn2cncc12 [Example 21, 8-(2-(trifluoromethoxy)phenyl)H-imidazo[1,5-a]pyridine] | 36.5 | 14.5 |
| CCOc1ccc(-c2cccn3cncc23)cc1 [Example 22, 8-(4-ethoxyphenyl)H-imidazo[1,5-a]pyridine] | 14.3 | 1.89 |
| c1cc(-c2ccc3c(c2)OCO3)c2cncn2c1 [Example 23, 8-(benzo[d][1,3]dioxol-6-yl)H-imidazo[1,5-a]pyridine] | 29.2 | 3.46 |
| COc1ccc(-c2cccn3cncc23)cc1C [Example 24, 8-(4-methoxy-3-methylphenyl)H-imidazo[1,5-a]pyridine] | 26.4 | 2.66 |
| COc1ccc(-c2cccn3cncc23)cc1OC [Example 26, 8-(3,4-dimethoxyphenyl)H-imidazo[1,5-a]pyridine] | 15.4 | 9.38 |
| COc1c(C)cc(-c2cccn3cncc23)cc1C [Example 27, 8-(4-methoxy-3,5-dimethylphenyl)H-imidazo[1,5-a]pyridine] | 27.4 | 4.92 |

Compounds with a lower IC50, results first:

| IC50 [µM] | Ki [µM] | SMILES |
| --- | --- | --- |
| 13.2 | 3.7 | CCCCc1cccn2cncc12 [Example 1, 8-butylH-imidazo[1,5-a]pyridine] |
| 10.9 | 2.51 | c1ccc(-c2cccc(-c3cccn4cncc34)c2)cc1 [Example 19, 8-(biphen-3-yl)H-imidazo[1,5-a]pyridine] |
| 10.6 | 1.87 | Fc1ccc(-c2cccn3cncc23)cc1 [Example 7, 8-(4-fluorophenyl)H-imidazo[1,5-a]pyridine] |
| 9.71 | 2.02 | Fc1cccc(-c2cccn3cncc23)c1 [Example 6, 8-(3-fluorophenyl)H-imidazo[1,5-a]pyridine] |
| 9.17 | 1.19 | c1cc(-c2ccc3c(c2)OCCO3)c2cncn2c1 [Example 25, 8-(2,3-dihydrobenzo[b][1,4]dioxin-7-yl)H-imidazo[1,5-a]pyridine] |
| 8.22 | 1.3 | c1ccc(-c2cccn3cncc23)cc1 [Example 4, 8-phenylH-imidazo[1,5-a]pyridine] |
| 7.81 | 1.48 | c1ccc(COc2cccc(-c3cccn4cncc34)c2)cc1 [Example 16, 8-(3-(benzyloxy)phenyl)H-imidazo[1,5-a]pyridine] |
| 6.19 | 1.1 | COc1cccc(-c2cccn3cncc23)c1 [Example 13, 8-(3-methoxyphenyl)H-imidazo[1,5-a]pyridine] |
| 5.51 | 1.11 | Clc1ccc(-c2cccn3cncc23)cc1 [Example 10, 8-(4-chlorophenyl)H-imidazo[1,5-a]pyridine] |
| 4.36 | 0.75 | c1ccc(COc2ccc(-c3cccn4cncc34)cc2)cc1 [Example 17, 8-(4-(benzyloxy)phenyl)H-imidazo[1,5-a]pyridine] |
